Data as given in patent US20110245334A1, “USE OF RACEMATES OF PINOCEMBRIN IN PREPARING MEDICAMENTS FOR TREATING STROKE” (CSPC Zhonggi Pharmaceutical Technology (Shijiazhuang) Co. …, priority 2008, published 2011).

Legend:
Format in all cases: in vivo, rat
[1] = system: plasma ET-1; assay: Plasma ET-1 (radioimmunoassay) in SHRSP; design: ET-1 content: unit not given here; conditions: plasma, SHRSP rats, 3 mg/kg
Description: 5) Blood of 2 mL was dropped rapidly in a cuvette with 30 μL 7.5% EDTA-2Na and 40 μL aprotinin and mixed. After centrifuged for 5 min at 3000 rpm, plasma ET-1 in liquid supernatant was determined by isotope radioimmunoassay.

[2] = system: MCAO rats; assay: Regional cerebral blood flow (LDF), MCAO; conditions: 3 mg/kg
Description: The rats were fixed pronely on the stereotaxic apparatus and subjected to craniotomy. After cleaning for operation visual field, bregma was used as an origin, and a site situated 2 mm behind and 3 mm right to the bregma was selected as a measuring point. The region […] around the site was thinned by a dental drill. In the process, the integrity of dura was maintained and large vessels were avoided. Probe holder was located and fixed.
The rats were supinely fixed on the operating table to carry out MCAO surgery. When a nylon line was inserted in ICA, it was not inserted into intracranial part until LDF value was stable, and blood flow value in 10 min was recorded, and an average value thereof is used as a baseline value of cerebral blood flow. After the MCAO surgery completed, the nylon line was inserted into the intracranial part. When the blood flow value suddenly declined to 20-30% of the baseline value, it was noted that the blood flow in MCA had been blocked. The blood flow value before MCAO in every group was used as a baseline value (100%) of the group. […] LDF value was determined at the same site before the animals was put to death.

[3] = system: tMCAO rats; assay: Infarct volume (TTC), tMCAO time window study; conditions: 2 hours ischemia and 24 hours reperfusion, 1 mg/kg, 3 h
Description: 1. In the test, transient middle cerebral artery occlusion (tMCAO) model of rats was adopted. The reperfusion was performed after focal cerebral ischemia for 2 hours so as to inspect therapeutic time window of pinocembrin after focal cerebral ischemia. The rats were administered by pinocembrin racemate (1 mg/kg, 5 mg/kg, intravenous injection) after reperfusion 1 hour, 4 hours and 6 hours (i.e., ischemia 3 hour, 6 hours and 8 hours). (R)-pinocembrin and (S)-pinocembrin (1 mg/kg, 5 mg/kg, intravenous injection) were administered after reperfusion 1 hour and 4 hours (i.e., ischemia 3 hour and 6 hours). The therapeutic time windows of these drugs in focal cerebral ischemia were assessed by studying their effects to neurological symptom scores, infarct sizes and brain water contents during 24 hours after tMCAO.
2.4 Experimental Grouping and Administration • Sham operation group (intravenous injection of normal saline after 3 hours of ischemia); • Model group (intravenous injection of 50 mg/kg hydroxypropyl β-cyclodextrin after 3 hours of ischemia); • Nimodipine group (1 mg/kg, administered after 3 hours of ischemia); • Pinocembrin racemate group (1 mg/kg, 5 mg/kg, administered after 3, 6 and 8 hours of ischemia); • (R)-pinocembrin group (1 mg/kg, 5 mg/kg, administered after 3 and 6 hours of ischemia); • (S)-pinocembrin group (1 mg/kg, 5 mg/kg, administered after 3 and 6 hours of ischemia).
First administration was performed by intravenous injection, and intraperitoneal injection was carried out once 12 hours later with a dose 1.5 times of that for intravenous injection.
After neurobehavioral scoring, the rats were put to death by decollation and their brain tissues were taken out quickly and put into a refrigerator of −20° C. 10 min later, the brain tissues were moved to an environment of room temperature. After the olfactory bulb, cerebellar and lower brain stem were resected, the brain tissue was cut into six continuous coronal slices with an interval of 2 mm. Then the brain slices were quickly put into 5 ml solution containing 2% TTC and incubated at a constant temperature of 37° C. and in a condition of darkness for 30 min. During the time, the brain slices were tipped every 5 min. […] Every group of brain slices were put in order and photographed. The photographs were processed by an image analysis system and the infarct areas in each slice were calculated. The infarct volume of each slice was calculated via multiplying the infarct area by thickness of slice (2 mm), and the infarct volume was the sum of infarct volumes of all slices. The infarct volume percentage was expressed as: sick-side infarct volume/total sick-side brain volume.

Question: Which results are given for COCCOC(=O)C1=C(C)NC(C)=C(C(=O)OC(C)C)C1c1cccc([N+](=O)[O-])c1 (stereo not drawn) [Nimodipine, reference compound]?
Answer: ET-1 content [1]: 174.8 ± 20.8; regional cerebral blood flow (rCBF) ([2]; time point 10 min): 99.91 ± 7.27 % of baseline value; regional cerebral blood flow (rCBF) ([2]; time point 20 min): 32.98 ± 8.09 % of baseline value; regional cerebral blood flow (rCBF) ([2]; time point 30 min): 55.58 ± 6.09 % of baseline value; regional cerebral blood flow (rCBF) ([2]; time point 30 min, listed as nimodipine): 55.58±6.09 % of baseline value; regional cerebral blood flow (rCBF) ([2]; time point 40 min): 67.96 ± 7.81 % of baseline value; regional cerebral blood flow (rCBF) ([2]; time point 50 min): 66.59 ± 9.08 % of baseline value; regional cerebral blood flow (rCBF) ([2]; time point 60 min): 64.09 ± 8.03 % of baseline value; regional cerebral blood flow (rCBF) ([2]; time point 70 min): 65.72 ± 8.58 % of baseline value; regional cerebral blood flow (rCBF) ([2]; time point 80 min): 64.98 ± 6.25 % of baseline value; regional cerebral blood flow (rCBF) ([2]; time point 90 min): 63.99 ± 6.09 % of baseline value; regional cerebral blood flow (rCBF) ([2]; time point 100 min): 67.01 ± 5.67 % of baseline value; regional cerebral blood flow (rCBF) ([2]; time point 110 min): 63.07 ± 6.1 % of baseline value; regional cerebral blood flow (rCBF) ([2]; time point 120 min): 61.85 ± 7.14 % of baseline value; regional cerebral blood flow (rCBF) ([2]; time point 130 min): 67.12 ± 8.09 % of baseline value; regional cerebral blood flow (rCBF) ([2]; time point 140 min): 65.89 ± 6.81 % of baseline value; regional cerebral blood flow (rCBF) ([2]; time point 150 min): 61.8 ± 8.08 % of baseline value; regional cerebral blood flow (rCBF) ([2]; time point 160 min): 63.47 ± 9.03 % of baseline value; regional cerebral blood flow (rCBF) ([2]; time point 170 min): 65.9 ± 7.58 % of baseline value; regional cerebral blood flow (rCBF) ([2]; time point 180 min): 66.08 ± 6.89 % of baseline value; Infarct percentage (%) [3]: 31.30 ± 10.31%
